According to US12377074B2, “Treatment for Wolfram syndrome” (YALE UNIVERSITY, priority 2019, dated 2025):
Entries after “also recorded” stand apart in the source; their conditions may differ.

Experiments:
WFS1-deficient cells [1] = details: cited from earlier work
WFS1-deficient cells [2] = details: cited from earlier work; remark: listed apart in the source
[3] = tested on: calpain activity in INS-1 cells; details: siRNA against WFS1, 10 μM dantrolene 48 h, then 0.5 μM thapsigargin 6 h, cleaved spectrin relative to GAPDH; cited from earlier work
[4] = cited from earlier work
WFS1-WT INS1 cells [5] = assay: Glucose-stimulated insulin secretion (insulin ELISA), WFS1-WT cells; format: cell-based, rat; details: 10 μM drug, 24 h
Description: (§1) For glucose-stimulated insulin secretion studies, INS1 cells were plated on 6-well plates at a density of 6×10^5 cells per well. After 24 hours, cells were incubated with drugs for another 24 hours. Two days after plating, the insulin ELISA assays were performed following a previously published protocol. In detail, preincubating cells in DMEM-base (Sigma) supplemented with 2.5 mM glucose for 1.5 h was followed by a 45 min incubation in DMEM-base with either 2.5 mM glucose for basal secretion or 9 mM glucose for stimulated secretion as indicated. 200 μl of supernatant were collected for analysis of insulin concentration using the Rat High Range ELISA kit (80-INSRTH-E01, ALPCO). Cells were washed with ice cold PBS and lysed in 1 mL 0.1% Triton X-100. Insulin levels were normalized to total protein measured by Micro BCA protein assay kit (23235, Thermo Fisher Scientific).

WFS1-OE INS1 cells = assay: CellTiter-Glo cell viability assay, WFS1-OE cells; format: cell-based, rat; details: 30 mM additional glucose (30G) 48 h
Description: (§2) CellTiter-Glo™ (CTG) assay (Promega) was used to quantify ATP-dependent bioluminescence as an indicator of cell viability. To assess cell viability, INS1 cells were plated in white 96-well plates (Cat. 07-200-628, Fisher Scientific) at a density of 2×10^3 cells per well and treated the following day with high glucose and/or the indicated drugs for 48 hours before imaging. After treatment was completed, 100 μL of CTG solution was added to each well and 20 minutes later, reading was performed using a Tecan Infinite M1000 Pro microplate reader using the following setting: 5 s orbital shaking (3 mm, 216 rpm), followed by imaging in luminescence mode with 500 ms integration time.
(§3) Because intracellular calcium is an important determinant of cell viability, we measured cell viability in WFS1-WT and WFS1-KO cells. A luminescent, ATP-based assay was used. […] Following hyperglycemia (additional 30 mM glucose for 48 h), we observed an approximately 40% reduction in cell viability in WFS1-KO cells, whereas cell viability in WFS1-WT cells was only 15% lower than under control conditions (FIG. 19C). WFS1-KO cells could be rescued by WFS1 re-expression (SI Appendix, FIG. S5A). These findings are supported by previous reports showing that WFS1 deficiency causes progressive loss of pancreatic β-cells.

WFS1-KO INS1 cells [6] = assay: Resting cytosolic calcium imaging (Fura-2-AM), WFS1-KO cells; format: cell-based, rat; details: 10 μM, 24 h treatment
Description: (§4) 2×10^5 cells were plated on each coverslip 2 days before imaging in INS1 medium without G418. HEPES-buffered saline (140 mM NaCl. 1.13 mM MgCl2, 4.7 mM KCL, 2 mM CaCl2, 10 mM D-glucose, and 10 mM HEPES, adjusted to pH 7.4 with NaOH) was used to prepare calcium dye solution and during imaging. In calcium-free HEPES buffer, CaCl2 was replaced with MgCl2 and 0.1 mM EGTA was added to chelate calcium. Fura-2-AM dye powder (Thermo Fisher) was dissolved to 4 μM in calcium-containing HEPES buffer supplemented with 0.03% Pluronic acid (Thermo Fisher). On the day of imaging, each coverslip was incubated in dye solution for 45 min in the dark at room temperature. Each coverslip was then washed 3 times in HEPES-buffered saline solution before calcium imaging began. Calcium measurements were performed with a Hammamatsu Orca R2 camera attached to a Zeiss microscope with a Sutter Lambda DG4 for excitation ratio imaging. Cells were imaged using sequential excitation at 340/380 nm (Fura-2-AM). Images were acquired with emission bandwidth of 501 to 550 nm every second. The raw 340 and 380 signals for each cell were subtracted by corresponding background signal before a 340/380 ratio was calculated. Max amplitude and area under the curve were calculated using PRISM Statistical Software 8. Rate of rise was quantified as the gradient between 25% and 75% maximum amplitude. […]

WFS1-KO INS1 cells [7] = assay: Glucose-stimulated insulin secretion (insulin ELISA), WFS1-KO cells; format: cell-based, rat; details: 10 μM drug; for glucose-stimulated insulin secretion: 9 mM glucose stimulation; for difference in glucose-stimulated insulin secretion between WFS1-WT and WFS1-KO cells: after stimulation with 9 mM glucose
Description: as §1

WFS1-WT INS1 cells [8] = assay: Resting cytosolic calcium imaging (Fura-2-AM), WFS1-WT cells; format: cell-based, rat; details: 10 μM, 24 h treatment
Description: as §4

WFS1-KO INS1 cells [9] = assay: CellTiter-Glo cell viability assay, WFS1-KO cells; format: cell-based, rat; details: for cell viability after hyperglycemia / cell viability at baseline: WFS1-KO cells; for cell viability after hyperglycemia: 30 mM additional glucose (30G) 48 h, normalized to CTRL, 10 μM in FIG. 19C; for cell viability at baseline: no additional glucose
Description: CellTiter-Glo™ (CTG) assay (Promega) was used to quantify ATP-dependent bioluminescence as an indicator of cell viability. […] After treatment was completed, 100 μL of CTG solution was added to each well and 20 minutes later, reading was performed using a Tecan Infinite M1000 Pro microplate reader using the following setting: 5 s orbital shaking (3 mm, 216 rpm), followed by imaging in luminescence mode with 500 ms integration time.
Because intracellular calcium is an important determinant of cell viability, we measured cell viability in WFS1-WT and WFS1-KO cells. A luminescent, ATP-based assay was used.

WFS1-WT INS1 cells [10] = assay: CellTiter-Glo cell viability assay, WFS1-WT cells; format: cell-based, rat; details: 30 mM additional glucose (30G) 48 h, normalized to CTRL, 10 μM in FIG. 19C
Description: as §2, §3

INS-1 cells (WT) = assay: Cell survival after high glucose, WT INS-1 cells (first set); format: cell-based, rat; details: for cell survival after treatment with 31 mM glucose for 48 hours (glucose induced cell death): survival normalized to % survival at 1 mM glucose
Description: (§5) Survival is normalized to % survival at 1 mM glucose.
as §5

WFS1 KO INS-1 cells = assay: Cell survival after high glucose, WFS1 KO INS-1 cells (first set); format: cell-based, rat; details: for cell survival after treatment with 31 mM glucose for 48 hours (glucose induced cell death): 31 mM glucose 48 h, survival normalized to % survival at 1 mM glucose
Description: as §5
The concentration range for protection from cell death by high glucose in WFS1 KO cells is similar.

SMILES | cell viability after hyperglycemia (WFS1-OE INS1 cells) | resting cytosolic calcium (WFS1-KO INS1 cells [6]) | glucose-stimulated insulin secretion (WFS1-KO INS1 cells [7]; WFS1-KO cells, 24 h) | difference in glucose-stimulated insulin secretion between WFS1-WT and WFS1-KO cells (WFS1-KO INS1 cells [7]) | resting cytosolic calcium (WFS1-WT INS1 cells [8]) | cell viability after hyperglycemia (WFS1-KO INS1 cells [9]) | cell viability at baseline (WFS1-KO INS1 cells [9]) | cell viability after hyperglycemia (WFS1-WT INS1 cells [10]) | cell survival after treatment with 31 mM glucose for 48 hours (glucose induced cell death) (INS-1 cells (WT); 31 mM glucose 48 h) | cell survival after treatment with 31 mM glucose for 48 hours (glucose induced cell death) (WFS1 KO INS-1 cells) | further results
O=C1CN(/N=C/c2ccc(-c3ccc([N+](=O)[O-])cc3)o2)C(O)=N1 [Dantrolene, dantrolene] |  |  |  |  |  |  |  |  |  |  | cytosolic calcium levels (WFS1-deficient cells [1]): restored; apoptosis (WFS1-deficient cells [2]): suppressed; calpain activity [3]: reduced; side effects of prolonged use [4]: liver toxicity
CCC(NC(=O)OCc1ccccc1)C(=O)C(=O)NCCCN1CCOCC1 (centres unmarked) [calpain inhibitor XI] | fully rescued cell viability back to baseline | lowered the resting cytosolic calcium in WFS1-KO cells to the level of WFS1-WT cells; also recorded: reversed elevated cytosolic calcium | reversed the impairment; also recorded: can be reversed | ameliorated the difference | without affecting | fully rescued cell viability back to baseline; also recorded: rescued cell viability back to normal level | did not significantly affect cell viability | fully rescued cell viability back to baseline |  |  | insulin secretion (WFS1-WT INS1 cells [5]): did not affect; high glucose-induced loss of cell viability, dose dependence (WFS1-KO INS1 cells [9]; WFS1-KO cells (clone #1), high glucose, dose series): reversed glucose toxicity-induced loss of cell viability in a dose-dependent manner; also recorded: dose-dependently reversed; cell viability after hyperglycemia (WFS1-KO INS1 cells [9]; listed as C.I.): rescued; cell viability after hyperglycemia (WFS1-WT INS1 cells [10]; listed as C.I.): rescued
CN(C)CCCN1c2ccccc2Sc2ccc(Cl)cc21 [chlorpromazine] |  |  |  |  |  |  |  |  | no effect | no effect | cell survival after treatment with 31 mM glucose for 48 hours (glucose induced cell death) (INS-1 cells (WT); 31 mM glucose 48 h, listed as chlorprmazine): no effect on survival; cell survival after treatment with 31 mM glucose for 48 hours (glucose induced cell death) (WFS1 KO INS-1 cells; listed as chlorprmazine): no effect on survival
CC(C)C(=O)c1c(C(C)C)nn2ccccc12 [ibudilast] | fully rescued cell viability back to baseline | lowered the resting cytosolic calcium in WFS1-KO cells to the level of WFS1-WT cells; also recorded: reversed elevated cytosolic calcium | reversed the impairment; also recorded: can be reversed | ameliorated the difference | without affecting | fully rescued cell viability back to baseline; also recorded: rescued cell viability back to normal level | did not significantly affect cell viability; also recorded: slightly raised cell viability | fully rescued cell viability back to baseline | rescued viability; also recorded: did protect cell survival | rescued viability | insulin secretion at baseline (WFS1-WT INS1 cells [5]; 2.5 mM glucose): enhanced insulin secretion at baseline; insulin secretion at baseline (WFS1-KO INS1 cells [7]; WFS1-KO cells, 2.5 mM glucose, 24 h): enhanced insulin secretion at baseline; cell viability after hyperglycemia (WFS1-KO INS1 cells [9]; listed as IBU): rescued; cell survival at low (normal) glucose (INS-1 cells (WT); 1 mM glucose): no effect; also recorded: does not alter cell survival; concentration giving nearly full recovery/protection of survival (INS-1 cells (WT); 31 mM glucose 48 h): 1 µM; EC50 (INS-1 cells (WT); 31 mM glucose 48 h, read-out: half max effect on survival): ~300 nM; concentration range for protection from cell death by high glucose, compared with WT (WFS1 KO INS-1 cells; high glucose): similar; cell viability after hyperglycemia (WFS1-WT INS1 cells [10]; listed as IBU): rescued
[Li] [lithium] |  |  |  |  |  |  |  |  | no effect | no effect | 
CCCC(CCC)C(=O)O [valproic acid] |  |  |  |  |  |  |  |  | no effect | no effect | cell survival after treatment with 31 mM glucose for 48 hours (glucose induced cell death) (INS-1 cells (WT); 31 mM glucose 48 h, listed as valproate): no effect on survival; cell survival after treatment with 31 mM glucose for 48 hours (glucose induced cell death) (WFS1 KO INS-1 cells; listed as valproate): no effect on survival
